Test results from BindingDB's records for doi:10.3109/14756366.2013.823957 (National Tsing Hua University, 2014).

Molecular target: Cathepsin S (Homo sapiens, UniProt P25774)
Experiment: Cathepsin Activity Assay
Conditions: pH 6.5; 25 °C
Description: A microplate-based screening procedure was used to study the effect of inhibition of re-Cat S, re-Cat L and re-Cat K on several compounds. The assays were performed in quadruplicates at 25 °C in a buffer containing 50 mM MES, pH 6.5, 2.5 mM EDTA and 1 mM DTT for re-Cat S, or 100 mM NaOAc, pH 5.5, 1 mM DTT and 2 mM EDTA for re-Cat L, or 50 mM MES, pH 5.5, 5 mM DTT and 2.5 mM EDTA for re-Cat K. Each of tested compounds at 100 nM was incubated with 50 nM re-Cat S, 31.25 pM re-Cat L or 10 nM re-Cat K at 37 °C for 10 min before initiating the reaction with the addition of 5 μM relevant substrate (Z-Phe-Arg-AMC for Cat L and Cat K, and Z-Val-Val-Arg-AMC for Cat S), respectively [Ward et al., J. Med. Chem., 45:5471-82]. Reactions in microplates were kept at 37 °C for another 30 min and then to collect the fluorescent signals from each well in microplates. E64 and 1% DMSO were applied as positive and solvent control, respectively. Fluorimetric assays were performed at 37 °C on a Perkin Elmer LS55 fluorescence spectrophotometer (Waltham, MA) with excitation at 370 nm and emission at 460 nm wavelengths. The inhibitory ability of a tested compound was determined by decreased fluorescence compared to DMSO control.

Sequence of Cathepsin S (P25774 whole entry): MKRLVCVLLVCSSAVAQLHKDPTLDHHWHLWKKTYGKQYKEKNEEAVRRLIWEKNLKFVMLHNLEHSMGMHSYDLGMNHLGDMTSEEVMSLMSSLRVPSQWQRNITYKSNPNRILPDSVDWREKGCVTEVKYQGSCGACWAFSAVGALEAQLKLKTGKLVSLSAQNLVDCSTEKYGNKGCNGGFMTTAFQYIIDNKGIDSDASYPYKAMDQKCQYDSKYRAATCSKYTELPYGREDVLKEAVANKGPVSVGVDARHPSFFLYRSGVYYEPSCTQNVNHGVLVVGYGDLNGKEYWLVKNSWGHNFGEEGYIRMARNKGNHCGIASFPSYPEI

Compound	IC50
CCOC(=O)CNC(=O)C(=O)C(COCc1ccccc1)NC(=O)C(CC1CCCCC1)NC(=O)c1cc(OC)ccc1[N+](=O)[O-] (stereo not drawn) [Cathepsin S inhibitor alpha-ketoamide, 6e]	3.1 nM
CCOC(=O)CNC(=O)C(=O)C(COCc1ccccc1)NC(=O)C(CC1CCCCC1)NC(=O)c1cccc([N+](=O)[O-])c1 (stereo not drawn) [Cathepsin S inhibitor alpha-ketoamide, 6b]	2 nM
CCOC(=O)CNC(=O)C(=O)C(COCc1ccccc1)NC(=O)C(CC1CCCCC1)NC(=O)N1CCOCC1 (stereo not drawn) [Cathepsin S inhibitor alpha-ketoamide, 6a]	4.4 nM
CCOC(=O)CNC(=O)C(=O)C(COCc1ccccc1)NC(=O)C(CC1CCCCC1)NC(=O)c1ccc(C(=O)OC)c(NC(=O)OC(C)(C)C)c1 (stereo not drawn) [Cathepsin S inhibitor alpha-ketoamide, 6n]	49.2 nM
CCOC(=O)CNC(=O)C(=O)C(COCc1ccccc1)NC(=O)C(CC1CCCCC1)NC(=O)c1cccc2c1C(=O)c1ccccc1-2 (stereo not drawn) [Cathepsin S inhibitor alpha-ketoamide, 6r]	8.8 nM
CC(C)(C)CC(C)(C)NC(=O)C(=O)C(COCc1ccccc1)NC(=O)C(CC1CCCCC1)NC(=O)N1CCOCC1 (stereo not drawn) [Cathepsin S inhibitor alpha-ketoamide, 6w]	3.1 nM
CCOC(=O)CNC(=O)C(=O)C(COCc1ccccc1)NC(=O)C(CC1CCCCC1)NC(=O)c1ccc(C(=O)OC)c(N)c1 (stereo not drawn) [Cathepsin S inhibitor alpha-ketoamide, 6p]	5.8 nM
